pIC50: −log10 of the molar value.

The target in this assay is T1, wild-type HIV-1 protease (Human immunodeficiency virus type 1 group M subtype B, UniProt P04585).
T1 construct: Escherichia coli expressed wild-type HIV-1 protease protein
Nature of the assay: Assay for Inhibition of Microbial Expressed HIV Protease (peptide substrate cleavage, LC-MS/MS readout). The class given is biochemical. The following applies: E. coli expressed wild-type HIV-1 protease, mean of at least two independent experiments, read-out: HIV Pr Enzyme HIV1 PR IC50. The method in brief:
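E. coli-expressed wild-type HIV-1 protease ([…]) was preincubated with inhibitor 30 min at room temperature in pH 5.5 acetate buffer (100 mM NaCl, 0.1% BSA). Then 400 μM octapeptide substrate was added and reacted 1 h at 30 °C; inhibition came from LC-MS/MS product peak areas, mean of ≥2 experiments.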
In the case of `CN(C)C(=O)C1c2ccccc2CN1C(=O)c1cccc(CN2C(=N)NC(c3ccccc3)(c3ccccc3)C2=O)c1` (centres unmarked) [Compound 299, 2-({3-[(2-imino-5-oxo-4,4-diphenylimidazolidin-1-yl)methyl]phenyl}carbonyl)-N,N-dimethyl-2,3-dihydro-1H-isoindole-1-carboxamide], the pIC50 (as a rule, the IC50 on a negative log10 scale, so that one unit is a factor of ten) was 7.36.
On to `CC1c2cc(Cl)c(Cl)cc2CN1C(=O)c1cccc(CN2C(=N)NC(c3ccccc3)(c3ccccc3)C2=O)c1` (centres unmarked) [Compound 322, 3-{3-[(5,6-dichloro-1-methyl-1,3-dihydro-2H-isoindol-2-yl)carbonyl]benzyl}-2-imino-5,5-diphenylimidazolidin-4-one], for which the negative-log IC50 (pIC50) is 7.24.
Regarding `CC(C)CC1(c2cccc(F)c2)NC(=N)N(Cc2cccc(C(=O)N3Cc4ccccc4C3)c2)C1=O` (centres unmarked) [Compound 264, 3-[3-(1,3-dihydro-2H-isoindol-2-ylcarbonyl)benzyl]-5-(3-fluorophenyl)-2-imino-5-(2-methylpropyl) imidazolidin-4-one], the pIC50 is 7.61.
Consider `CC(C)CC[C@]1(c2ccc(F)cc2)NC(=N)N(C(Cc2ccccc2)c2ccc(C(F)(F)F)c(C(=O)N3Cc4nccnc4C3)c2)C1=O` (stereo partly drawn) [Compound 6, (5R)-3-{1-[3-(5,7-dihydro-6H-pyrrolo[3,4-b]pyrazin-6-ylcarbonyl)-4-(trifluoromethyl)-phenyl]-2-phenylethyl}-5-(4-fluorophenyl)-2-imino-5-(3-methylbutyl)imidazolidin-4-one], for which the pIC50 was 9.59.
Consider `N=C1NC(c2ccc(F)cc2)(c2ccc(F)cc2)C(=O)N1Cc1cccc(C(=O)N2Cc3cnc(C(F)(F)F)nc3C2)c1` [Compound 211, 5,5-bis(4-fluorophenyl)-2-imino-3-(3-{[2-(trifluoromethyl)-5,7-dihydro-6H-pyrrolo[3,4-d]pyrimidin-6-yl]carbonyl}benzyl) imidazolidin-4-one], for which the pIC50 is 7.54.
As for `CC(C)CCC1(c2ccccc2)NC(=N)N(Cc2ccc(C(F)(F)F)c(C(=O)N3Cc4cncnc4C3)c2)C1=O` (centres unmarked) [Compound 152, 3-[3-(5,7-dihydro-6H-pyrrolo[3,4-d]pyrimidin-6-ylcarbonyl)-4-(trifluoromethyl)benzyl]-2-imino-5-(3-methylbutyl)-5-phenylimidazolidin-4-one], the negative logarithm of the IC50 (pIC50) is 8.11.
On to `N=C1NC(c2ccccc2)(c2ccccc2)C(=O)N1Cc1ccc(F)c(C(=O)N2Cc3cccnc3C2)c1` [Compound 386, 3-[3-(5,7-dihydro-6H-pyrrolo[3,4-b]pyridin-6-ylcarbonyl)-4-fluorobenzyl]-2-imino-5,5-diphenylimidazolidin-4-one], for which the pIC50 is 7.55.
`CC(C)CCC1(c2ccccc2)NC(=N)N(Cc2cccc(C(=O)N3Cc4nccnc4C3)c2)C1=O` (centres unmarked) [Compound 208, 3-[3-(5,7-dihydro-6H-pyrrolo[3,4-b]pyrazin-6-ylcarbonyl)benzyl]-2-imino-5-(3-methylbutyl)-5-phenylimidazolidin-4-one]: the pIC50 was 7.45.
For the compound `COC(=O)N1CCN(C(=O)c2cccc(CN3C(=N)NC(c4ccc(F)cc4)(c4cccc(C#N)c4)C3=O)c2)CC1` (centres unmarked) [Compound 350, methyl 4-[(3-{[4-(3-cyanophenyl)-4-(4-fluorophenyl)-2-imino-5-oxoimidazolidin-1-yl]methyl}phenyl)carbony1] piperazine-1-carboxylate], the negative logarithm of the IC50 (pIC50) was 7.07.
Consider `CN(C)C(=O)N1CCN(C(=O)c2cccc(CN3C(=N)NC(c4ccccc4)(c4ccccc4)C3=O)c2)CC1` [Compound 357, 4-({3-[(2-imino-5-oxo-4,4-diphenylimidazolidin-1-yl)methyl]phenyl}carbonyl)-N,N-dimethylpiperazine-1-carboxamide], for which the negative logarithm of the IC50 (pIC50) was 7.04.
The same measure for `CNC(=O)N1CCN(C(=O)c2cc(CN3C(=N)N[C@](CCCC(F)(F)F)(c4ccc(F)cc4)C3=O)ccc2C(F)(F)F)CC1` [Compound 115, 4-{[5-{[(4R)-4-(4-fluorophenyl)-2-imino-5-oxo-4-(4,4,4-trifluoro-butyl)imidazolidin-1-yl]methyl}-2-(trifluoromethyl)phenyl]carbonyl}-N-methylpiperazine-1-carboxamide]: 7.44; for `N=C1N[C@](CCCC(F)(F)F)(c2ccc(F)cc2)C(=O)N1Cc1ccc(C(F)(F)F)c(C(=O)N2CCn3nc(C4CC4)nc3C2)c1` [Compound 122, (5R)-3-{3-[(2-cyclopropyl-5,6-dihydro[1,2,4]triazolo[1,5-a]pyrazin-7(8H)-yl)carbonyl]-4-(trifluoromethyl)benzyl}-5-(4-fluorophenyl)-2-imino-5-(4,4,4-trifluorobutyl)imidazolidin-4-one]: 7.32.
As for `N=C1NC(c2ccccc2)(c2ccccc2)C(=O)N1Cc1ccc(C(F)(F)F)c(C(=O)N2Cc3cncnc3C2)c1` [Compound 145, 3-[3-(5,7-dihydro-6H-pyrrolo[3,4-d]pyrimidin-6-ylcarbonyl)-4-(trifluoromethyl)benzyl]-2-imino-5,5-diphenylimidazolidin-4-one], the pIC50 is 8.39.
In the case of `CC(C)CC1(c2ccccc2)NC(=N)N(Cc2cccc(C(=O)N3CCN(c4ccccc4)CC3)c2)C1=O` (centres unmarked) [Compound 342, 2-imino-5-(2-methylpropyl)-5-phenyl-3-{3-[(4-phenylpiperazin-1-yl)carbonyl]benzyl} imidazolidin-4-one], the negative-log IC50 (pIC50) is 7.10.
As for `Cc1cc2c(cn1)CN(C(=O)c1cccc(CN3C(=N)NC(c4ccc(F)cc4)(c4ccc(F)cc4)C3=O)c1)C2` [Compound 226, 5,5-bis(4-fluorophenyl)-2-imino-3-{3-[(6-methyl-1,3-dihydro-2H-pyrrolo[3,4-c]pyridin-2-yl)carbonyl]benzyl} imidazolidin-4-one], the negative logarithm of the IC50 (pIC50) was 7.91.
Take `COC(=O)N1CCN(C(=O)c2cccc(CN3C(=N)NC(c4ccccc4)(c4ccccc4)C3=O)c2)CC1` [Compound 330, methyl 4-({3-[(2-imino-5-oxo-4.4-diphenylimidazolidin-1-yl)methyl]phenyl}carbonyl) piperazine-1-carboxylate]: the pIC50 is 7.17.
With `N=C1N[C@](CCC2CC2)(c2ccc(F)cc2)C(=O)N1[C@@H]1CCCc2ccc(C(=O)N3Cc4nccnc4C3)cc21` [Compound 129, (5R)-5-(2-cyclopropylethyl)-3-[(1R)-7-(5,7-dihydro-6H-pyrrolo[3,4-b]pyrazin-6-ylcarbonyl)-1,2,3,4-tetrahydronaphthalen-1-yl]-5-(4-fluorophenyl)-2-iminoimidazolidin-4-one], the negative-log IC50 (pIC50) is 7.15.
For the compound `CC(C)CCC1(c2cccc(-c3cccnc3)c2)NC(=N)N(Cc2cccc(C(=O)N3Cc4ccccc4C3)c2)C1=O` (centres unmarked) [Compound 277, 3-[3-(1,3-dihydro-2H-isoindol-2-ylcarbonyl)benzyl]-2-imino-5-(3-methylbutyl)-5-(3-pyridin-3-ylphenyl)imidazolidin-4-one], the negative-log IC50 (pIC50) was 7.53.
Take `N=C1NC(c2ccccc2)(c2ccccc2)C(=O)N1Cc1cccc(C(=O)N2CCn3cc(C(F)(F)F)nc3C2)c1` [Compound 349, 2-imino-5,5-diphenyl-3-(3-{[2-(trifluoromethyl)-5,6-dihydroimidazo-[1,2-a]pyrazin-7(8H)-yl]carbonyl}-benzyl)imidazolidin-4-one]: the pIC50 was 7.07.
In the case of `N=C1N[C@](CCCC(F)(F)F)(c2ccc(F)cc2)C(=O)N1Cc1ccc(C(F)(F)F)c(C(=O)N2Cc3cnc(-c4cccc(N5CCCC5)c4)nc3C2)c1` [Compound 62, (5R)-5-(4-fluorophenyl)-2-imino-3-[3-{[2-(3-pyrrolidin-1-ylphenyl)-5,7-dihydro-6H-pyrrolo[3,4-d]pyrimidin-6-yl]carbonyl}-4-(trifluoromethyl)benzyl]-5-(4,4,4-trifluorobutyl)imidazolidin-4-one], the pIC50 was 8.16.
The same measure for `N=C1NC(c2ccc(F)cc2)(c2ccc(F)cc2)C(=O)N1Cc1cccc(C(=O)N2CCC(n3c(=O)[nH]c4ccc(F)nc43)CC2)c1` [Compound 276, 3-{1-[(3-{[4,4-bis(4-fluorophenyl)-2-imino-5-oxoimidazolidin-1-yl]methyl}phenyl)carbonyl]piperidin-4-yl}-5-fluoro-1,3-dihydro-2H-imidazo[4,5-b]pyridin-2-one]: 7.53; for `CC(C)C[C@@]1(c2ccccc2)NC(=N)N(Cc2ccc(C(F)(F)F)c(C(=O)N3Cc4nccnc4C3)c2)C1=O` [Compound 174, (5S)-3-[3-(5,7-dihydro-6H-pyrrolo[3,4-b]pyrazin-6-ylcarbonyl)-4-(trifluoromethyl)-benzyl]-2-imino-5-(2-methylpropyl)-5-phenylimidazolidin-4-one]: 7.26.
On to `N#Cc1ncc2c(n1)CN(C(=O)c1cc(CN3C(=N)NC(c4ccc(F)cc4)(c4ccc(F)cc4)C3=O)ccc1Cl)C2` [Compound 363, 6-[(5-{[4,4-bis(4-fluorophenyl)-2-imino-5-oxoimidazolidin-1-yl]methyl}-2-chlorophenyl)carbonyl]-6,7-dihydro-5H-pyrrolo[3,4-d]pyrimidine-2-carbonitrile], for which the negative-log IC50 (pIC50) was 8.78.
Consider `Cc1nc2c(s1)CN(C(=O)c1cccc(CN3C(=N)NC(c4ccccc4)(c4ccccc4)C3=O)c1)C2` [Compound 206, 5-({3-[(2-imino-5-oxo-4,4-diphenylimidazolidin-1-yl)methyl]phenyl}carbonyl)-2-methyl-3,4,5,6-tetrahydropyrrolo[3,4-d][1,3]thiazol-1-ium], for which the negative-log IC50 (pIC50) is 8.09.
On to `N=C1NC(c2ccc(F)cc2)(c2ccc(F)cc2)C(=O)N1Cc1cccc(C(=O)N2CCN(c3ccccn3)CC2)c1` [Compound 285, 5,5-bis(4-fluorophenyl)-2-imino-3-{3-[(4-pyridin-2-ylpiperazin-1-yl)carbonyl]benzyl} imidazolidin-4-one], for which the pIC50 was 7.48.
Regarding `N=C1NC(c2ccccc2)(c2ccccc2)C(=O)N1Cc1cccc(C(=O)N2CCc3cc(C(F)(F)F)ccc3C2)c1` [Compound 336, 2-imino-5,5-diphenyl-3-(3-{[6-(trifluoromethyl)-3,4-dihydroisoquinolin-2(1H)-yl]carbonyl}benzyl) imidazolidin-4-one], the pIC50 is 7.15.

Values taken from patent publication US20200069691A1, “HETEROCYCLIC COMPOUNDS AS HIV PROTEASE INHIBITORS” (Merck Sharp & Dohme Corp., priority 2016, published 2020).
